Laboratory results from the supplement of paper PMC10307832.

Tests used:
Experiment in all cases: relative viability (nuclei count vs DMSO), 5 days (fraction); higher = more cells survive
[1] = compound: CCn1c(-c2nonc2N)nc2cnc(Oc3cccc(NC(=O)c4ccc(OCCN5CCOCC5)cc4)c3)cc21 + Nc1ncn([C@H]2C[C@H](O)[C@@H](CO)O2)c(=O)n1 [Decitabine] (partner 2 µM)
Procedure, shortened: (§1)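 Relative viability is defined as nuclei in treated wells over nuclei in vehicle wells. Duplicate plates were run and medians reported. Lung cancer cell lines in 1536-well plates were dosed by pin tool one day after seeding, with one drug or with a fixed anchor-drug dose plus five library-drug doses (not always all listed) in √10 steps, and nuclei were counted after 5 days.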

[2] = compound: CCC1=CN=CN=C1N2CCN(CC2)CC3=NC4=C(N3)C=C(C=C4)C(F)(F)F + Cc1cc(Nc2cc(N3CCN(C)CC3)nc(Sc3ccc(NC(=O)C4CC4)cc3)n2)n[nH]1 [Tozasertib] (partner 0.1 µM)
Procedure, shortened: as §1

[3] = compound: CCC1=CN=CN=C1N2CCN(CC2)CC3=NC4=C(N3)C=C(C=C4)C(F)(F)F + CC(C)C[C@H](NC(=O)[C@H](Cc1ccccc1)NC(=O)c1cnccn1)B(O)O [Bortezomib] (partner 0.002 µM)
Procedure, shortened: as §1

[4] = compound: CCn1c(-c2nonc2N)nc2cnc(Oc3cccc(NC(=O)c4ccc(OCCN5CCOCC5)cc4)c3)cc21 + N=C(N)NC(=N)NCCc1ccccc1 [Phenformin] (partner 250 µM)
Procedure, shortened: as §1

Work on PC-3 [JPC-3] yielded a relative viability ([1]; first compound 0.04 µM) of 0.803, a relative viability ([1]; first compound 0.1265 µM) of 0.764 and a relative viability ([1]; first compound 0.4 µM) of 0.764. It also gave a relative viability ([1]; first compound 1.265 µM) of 0.655, a relative viability ([1]; first compound 4 µM) of 0.725 and a relative viability ([2]; first compound 0.04 µM) of 0.883. The relative viability ([2]; first compound 0.1265 µM) was 0.814, the relative viability ([2]; first compound 0.4 µM) was 0.844 and the relative viability ([2]; first compound 1.265 µM) was 0.886. For the same cell line, the relative viability ([2]; first compound 4 µM) was 0.776, the relative viability ([3]; first compound 0.04 µM) was 0.838 and the relative viability ([3]; first compound 0.1265 µM) was 0.765. The relative viability ([3]; first compound 0.4 µM) was 0.757, the relative viability ([3]; first compound 1.265 µM) was 0.807 and the relative viability ([3]; first compound 4 µM) was 0.854. The relative viability ([4]; first compound 0.04 µM) was 0.5, the relative viability ([4]; first compound 0.1265 µM) was 0.488 and the relative viability ([4]; first compound 0.4 µM) was 0.478. For the same cell line, the relative viability ([4]; first compound 1.265 µM) was 0.465 and the relative viability ([4]; first compound 4 µM) was 0.459.
In the case of PC-14, the relative viability ([1]; first compound 0.04 µM) was 0.238, the relative viability ([1]; first compound 0.1265 µM) was 0.252 and the relative viability ([1]; first compound 0.4 µM) was 0.217. The relative viability ([1]; first compound 1.265 µM) was 0.213, the relative viability ([1]; first compound 4 µM) was 0.286 and the relative viability ([2]; first compound 0.04 µM) was 0.599. For the same cell line, the relative viability ([2]; first compound 0.1265 µM) was 0.546, the relative viability ([2]; first compound 0.4 µM) was 0.55 and the relative viability ([2]; first compound 1.265 µM) was 0.502. The relative viability ([2]; first compound 4 µM) was 0.582, the relative viability ([3]; first compound 0.04 µM) was 0.938 and the relative viability ([3]; first compound 0.1265 µM) was 0.815. For the same cell line, the relative viability ([3]; first compound 0.4 µM) was 0.856, the relative viability ([3]; first compound 1.265 µM) was 0.848 and the relative viability ([3]; first compound 4 µM) was 0.935. It also gave a relative viability ([4]; first compound 0.04 µM) of 0.962, a relative viability ([4]; first compound 0.1265 µM) of 0.556 and a relative viability ([4]; first compound 0.4 µM) of 0.549. For the same cell line, the relative viability ([4]; first compound 1.265 µM) was 0.258 and the relative viability ([4]; first compound 4 µM) was 0.457.
RERF-LC-KJ gave a relative viability ([1]; first compound 0.04 µM) of 0.621, a relative viability ([1]; first compound 0.1265 µM) of 0.695 and a relative viability ([1]; first compound 0.4 µM) of 0.588. For the same cell line, the relative viability ([1]; first compound 1.265 µM) was 0.452, the relative viability ([1]; first compound 4 µM) was 0.29 and the relative viability ([2]; first compound 0.04 µM) was 0.517. It also gave a relative viability ([2]; first compound 0.1265 µM) of 0.503, a relative viability ([2]; first compound 0.4 µM) of 0.464 and a relative viability ([2]; first compound 1.265 µM) of 0.459. It also gave a relative viability ([2]; first compound 4 µM) of 0.398, a relative viability ([3]; first compound 0.04 µM) of 1.04 and a relative viability ([3]; first compound 0.1265 µM) of 1.01. It also gave a relative viability ([3]; first compound 0.4 µM) of 1.11, a relative viability ([3]; first compound 1.265 µM) of 0.941 and a relative viability ([3]; first compound 4 µM) of 1.11. For the same cell line, the relative viability ([4]; first compound 0.04 µM) was 0.487, the relative viability ([4]; first compound 0.1265 µM) was 0.42 and the relative viability ([4]; first compound 0.4 µM) was 0.379. The relative viability ([4]; first compound 1.265 µM) was 0.289 and the relative viability ([4]; first compound 4 µM) was 0.324.
With SK-LU-1 the relative viability ([1]; first compound 0.04 µM) was 0.628, the relative viability ([1]; first compound 0.1265 µM) was 0.571 and the relative viability ([1]; first compound 0.4 µM) was 0.423. It also gave a relative viability ([1]; first compound 1.265 µM) of 0.459, a relative viability ([1]; first compound 4 µM) of 0.424 and a relative viability ([2]; first compound 0.04 µM) of 0.326. The relative viability ([2]; first compound 0.1265 µM) was 0.334, the relative viability ([2]; first compound 0.4 µM) was 0.362 and the relative viability ([2]; first compound 1.265 µM) was 0.335. For the same cell line, the relative viability ([2]; first compound 4 µM) was 0.274, the relative viability ([3]; first compound 0.04 µM) was 1.09 and the relative viability ([3]; first compound 0.1265 µM) was 1.03. It also gave a relative viability ([3]; first compound 0.4 µM) of 1.16, a relative viability ([3]; first compound 4 µM) of 1.13 and a relative viability ([4]; first compound 0.04 µM) of 0.488. The relative viability ([4]; first compound 0.1265 µM) was 0.409, the relative viability ([4]; first compound 0.4 µM) was 0.333 and the relative viability ([4]; first compound 1.265 µM) was 0.251. The relative viability ([4]; first compound 4 µM) was 0.238.
SW 1573 was tested, and the relative viability ([1]; first compound 0.04 µM) was 0.476, the relative viability ([1]; first compound 0.1265 µM) was 0.466 and the relative viability ([1]; first compound 0.4 µM) was 0.365. For the same cell line, the relative viability ([1]; first compound 1.265 µM) was 0.23, the relative viability ([1]; first compound 4 µM) was 0.173 and the relative viability ([2]; first compound 0.04 µM) was 0.205. It also gave a relative viability ([2]; first compound 0.1265 µM) of 0.214, a relative viability ([2]; first compound 0.4 µM) of 0.181 and a relative viability ([2]; first compound 1.265 µM) of 0.153. For the same cell line, the relative viability ([2]; first compound 4 µM) was 0.203, the relative viability ([3]; first compound 0.04 µM) was 1.09 and the relative viability ([3]; first compound 0.1265 µM) was 1.08. The relative viability ([3]; first compound 0.4 µM) was 0.937, the relative viability ([3]; first compound 1.265 µM) was 0.893 and the relative viability ([3]; first compound 4 µM) was 0.892. It also gave a relative viability ([4]; first compound 0.04 µM) of 0.513, a relative viability ([4]; first compound 0.1265 µM) of 0.345 and a relative viability ([4]; first compound 0.4 µM) of 0.344. It also gave a relative viability ([4]; first compound 1.265 µM) of 0.282 and a relative viability ([4]; first compound 4 µM) of 0.154.
